Marks after values point to notes of the source that are not given here.
Tests used:
Longissimus dorsi muscle [1] = assay: Chemical and physicochemical quality of Longissimus dorsi muscle from supplemented cattle; type: in vivo, beef cattle of commercial breeds; conditions: 240 ppm ferulic acid (FA30) or 6 ppm zilpaterol hydrochloride (ZX), last 30 days of fattening
Procedure: (§1) Subsequent to the carcass classification the rib eye cut (LD muscle) was obtained of the left side of each selected carcass. Meat samples were identified, vacuum packed, frozen at -18° C., and then shipped under refrigeration by air courier to the Centro de Investigación en Alimentacion y Desarrollo A.C. (CIAD) facilities at Hermosillo, Sonora, to perform quality analysis of the meat: Chemical analysis (moisture and fat content), physicochemical (objective color parameters L*, which measures the brightness of the meat, a* value, which measures the redness, and b* value which measures the tendency towards yellowness, and hue-angle, Warner-Bratzler shear force, water retention capacity and pH). A sensory test was done by a trained panel consisting of 10 members using a descriptive test with a semi-structured 10 cm scale, where zero indicates a […] of the attribute and a 10 indicates a favorable rating (e.g. tenderness, zero indicates extremely hard and 10 extremely tender). The sensory attributes that were measured: total color and overall appearance of raw meat, flavor, odor, color, tenderness, fat perception, juiciness, and perception of connective tissue in cooked meat. […] To measure cooking loss, the meat sample was weighed before and immediately after reaching the final cooking temperature, which was expressed in percentage. All data for response variables of the quality of carcass and meat were analyzed under a completely randomized design, with a one-way ANOVA, taking the experimental treatments as a fixed effect. For carcass BFT and REA characteristics the hot carcass weight was used as a covariable. Regarding the sensory attributes, the model also included the effect of panelist as the repeated measure. The variables of the shelf life study were analyzed as a completely randomized design with factorial arrangement, factor A being the treatment with 4 levels, and factor B, the storage time with 5 levels. When there were statistical differences (P<0.05) between treatments, average comparisons were performed by the multiple range test of Tukey.

beef cattle = assay: Feedlot performance and carcass quality of beef cattle; type: in vivo, beef cattle of commercial breeds; conditions: last 30 days of fattening
Source text: In this study, all animals received the same prophylactic management, and all were subsequently assigned randomly to one of the following four treatments (25 animals per treatment, divided into pens of 5 experimental units per pen):
Definition of the 4 Treatments
Treatment 1 (Control): control animals (receiving only the basal diet without supplementation of the additive).
Treatment 2 (Ferulic Acid for 30 days=FA30): Animals receiving the basal diet supplemented with 240 ppm of ferulic acid during the last 30 days of the fattening period.
Treatment 3 (Ferulic Acid for 60 days=FA60): Animals receiving the basal diet supplemented with 240 ppm of ferulic acid during the last 60 days of the fattening period.
Treatment 4 (Zilmax commercial Zilpaterp; =ZX): Animals receiving the basal diet and supplemented with 6 ppm hydrochloride zilpaterol during the last 30 days of the fattening period.
During the experimental phase, all animals received a feeding ration consisting of 20% fodder and 80% concentrate. The crop was corn stover, while the concentrate consisted of different proportions of rolled corn grain, soybean meal, canola meal, distillery grains, and molasses. The ration was provided twice a day, and there was free access to the food and drinking water.
Initial and final live weight was recorded in the productive performance trial. The performance test lasted 60 days. Daily feed intake was evaluated, weight was recorded at the beginning and end of experimental period, in order to estimate the average daily gain and feed conversion.
Before concluding the performance test, 2 animals were randomly selected per pen (10 per treatment) for humanitarian slaughter. The animals were sacrificed following the standard procedures of the official Mexican standards in the municipal slaughterhouse of Guadalajara, Jalisco. Animal live weight was recorded before slaughter.
During the slaughter process, the pH of the carcass at 45 min postmortem in the Longissimus dorsi muscle (LD) was measured and the weight of the hot carcass was recorded. The carcasses were refrigerated at 0° C. for 24 hr. After this, the final pH was measured and cold carcass weight recorded, and the classification of carcasses was carried out, recording the Rib eye area (REA) in square inches, back fat thickness (BFT) in mm, and the marbling in the 12th intercostal space of the LD; the skeletal maturity and conformation of the carcass was also evaluated (10 carcasses per treatment). The assessment of quality of the carcass was made following the procedures described by the US Department of Agriculture (USDA, 2000).
All data for response variables of the quality of carcass and meat were analyzed under a completely randomized design, with a one-way ANOVA, taking the experimental treatments as a fixed effect. For carcass BFT and REA characteristics the hot carcass weight was used as a covariable. Regarding the sensory attributes, the model also included the effect of panelist as the repeated measure. The variables of the shelf life study were analyzed as a completely randomized design with factorial arrangement, factor A being the treatment with 4 levels, and factor B, the storage time with 5 levels. When there were statistical differences (P<0.05) between treatments, average comparisons were performed by the multiple range test of Tukey. All data was processed in the NCSS statistical package (NCSS, 2001).

Longissimus dorsi muscle [2] = assay: Sensory test of Longissimus dorsi meat by trained panel; type: in vivo, beef cattle of commercial breeds; conditions: FA30 240 ppm or ZX 6 ppm, last 30 days of fattening
Procedure: as §1

feedlot steers = conditions: steers supplemented with ractopamine compared to the control; cited from earlier work
[3] = 240 ppm ferulic acid (FA30) or 6 ppm zilpaterol hydrochloride (ZX) in diet
[4] = 240 ppm ferulic acid (FA30) or 6 ppm zilpaterol hydrochloride (ZX)
[5] = cooked meat, semi-structured 10 cm scale
[6] = raw meat, semi-structured 10 cm scale

CC(C)N[C@@H]1CCn2c(=O)[nH]c3cccc(c32)[C@H]1O.Cl [ZX, zilpaterol hydrochloride, reference compound]
Cooking loss (Longissimus dorsi muscle [1]): 19.20^b %
Fat content (Longissimus dorsi muscle [1]): 2.36%
Hue angle (Longissimus dorsi muscle [1]): 36.05
Moisture (Longissimus dorsi muscle [1]): 73.02%
WHC: water holding capacity (Longissimus dorsi muscle [1]): 25.13%
SF: shear force (Longissimus dorsi muscle [1]; Warner-Bratzler): 10.37^b kg F
L* value (Longissimus dorsi muscle [1]; fresh meat brightness): 35.34
a* value (Longissimus dorsi muscle [1]; fresh meat redness): 16.39
b* value (Longissimus dorsi muscle [1]; fresh meat yellowness): 11.95
pH (Longissimus dorsi muscle [1]; meat): 5.57
CY: carcass yield (beef cattle; [3]): 61.53^b %
FW: final weight (beef cattle; [3]): 579.4 kg
HCW: hot carcass weight (beef cattle; [3]): 356.34 kg
CCW: cold carcass weight (beef cattle; 240 ppm ferulic acid (FA30) or 6 ppm zilpaterol hydrochloride (ZX) in diet, carcass 24 hr at 0° C.): 350.62 kg
BFT: back fat thickness (beef cattle; [4]): 3.05 mm
PH24: pH at 24 h postmortem (beef cattle; [4]): 5.63
REA: rib eye area (beef cattle; [4]): 15.41 Inch^2
PH45: pH at 45 min postmortem (beef cattle; Longissimus dorsi, 240 ppm ferulic acid (FA30) or 6 ppm zilpaterol hydrochloride (ZX)): 6.17^a
Tenderness (Longissimus dorsi muscle [2]; cooked meat, 10 cm scale, zero extremely hard, 10 extremely tender): 6.85^a
Connective tissue perception (Longissimus dorsi muscle [2]; [5]): 1.42
Fat perception (Longissimus dorsi muscle [2]; [5]): 3.34
Flavor intensity (Longissimus dorsi muscle [2]; [5]): 6.56^a
Juiciness (Longissimus dorsi muscle [2]; [5]): 6.00^a
Odor intensity (Longissimus dorsi muscle [2]; [5]): 7.89
Appearance (Longissimus dorsi muscle [2]; [6]): 7.17
Overall Color (Longissimus dorsi muscle [2]; [6]): 7.41

CC(CCc1ccc(O)cc1)NCC(O)c1ccc(O)cc1 (stereo not drawn) [ractopamine]
shear force of meat (feedlot steers): significant increase in the shear force
